Experimental data as given in ChEMBL document CHEMBL1201862, “PubChem BioAssay data set” (2004).
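Assay format: 96-well plates, 48-hour exposure. Abbreviation: GI50, concentration required for 50% inhibition of growth.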 The source made the active and inactive calls. Rule as the data show it: active = GI50 up to about 1.1 µM and inactive = higher. Where a SMILES comes first, the peptide text is derived from it. The star is where a group is joined. Boc = CC(C)(C)OC(=O)*; OSu = O=C1CCC(=O)N1O*

Tests used:
Test in all cases: NCI tumour cell line growth inhibition, 48 h
MDA-N = tested on: MDA-N
SK-OV-3 = tested on: SK-OV-3
SF-268 = tested on: SF-268
NCI-H226 = tested on: NCI-H226
BT-549 = tested on: BT-549
HCT-116 = tested on: HCT-116
SN12C = tested on: SN12C
HOP-62 = tested on: HOP-62
ACHN = tested on: ACHN
M14 = tested on: M14
OVCAR-5 = tested on: OVCAR-5
SK-MEL-5 = tested on: SK-MEL-5
OVCAR-4 = tested on: OVCAR-4
Hs-578T = tested on: Hs-578T
HCT-15 = tested on: HCT-15
LOX IMVI = tested on: LOX IMVI
OVCAR-3 = tested on: OVCAR-3
SK-MEL-28 = tested on: SK-MEL-28
SK-MEL-2 = tested on: SK-MEL-2
SNB-75 = tested on: SNB-75

| SMILES | GI50 (MDA-N) | GI50 (SK-OV-3) | GI50 (SF-268) | GI50 (NCI-H226) | GI50 (BT-549) | GI50 (HCT-116) | GI50 (SN12C) | GI50 (HOP-62) | GI50 (ACHN) | GI50 (M14) | GI50 (OVCAR-5) | GI50 (SK-MEL-5) | GI50 (OVCAR-4) | GI50 (Hs-578T) | GI50 (HCT-15) [µM] | GI50 (LOX IMVI) | GI50 (OVCAR-3) | GI50 (SK-MEL-28) | GI50 (SK-MEL-2) | GI50 (SNB-75) |
| --- | --- | --- | --- | --- | --- | --- | --- | --- | --- | --- | --- | --- | --- | --- | --- | --- | --- | --- | --- | --- |
| COC(=O)C1=C(OC(=O)c2ccccc2)C(C(=O)OC)[C@]2(O)[C@@H](C(=O)OC)[C@H]1C[C@@H](c1ccccc1)[C@@H]2C(=O)OC (some centres undefined) | 1.95 µM (inactive) | 10.6 µM (inactive) | 11.4 µM (inactive) | 2.56 µM (inactive) | 12.2 µM (inactive) | 3.96 µM (inactive) | 8.43 µM (inactive) | 13.2 µM (inactive) | 10.9 µM (inactive) | 1.95 µM (inactive) | 22.9 µM (inactive) | 4.85 µM (inactive) | 10.6 µM (inactive) | 13.8 µM (inactive) | 7.82 | 9.31 µM (inactive) | 10.8 µM (inactive) | 12.2 µM (inactive) | 2.81 µM (inactive) |  |
| [N-]=[N+]=CC(=O)OC(CCl)CCl | > 100 µM (inactive) | > 100 µM (inactive) | > 100 µM (inactive) | > 100 µM (inactive) | > 100 µM (inactive) | > 100 µM (inactive) | > 100 µM (inactive) | > 100 µM (inactive) | > 100 µM (inactive) |  | > 100 µM (inactive) | 46.3 µM (inactive) | > 100 µM (inactive) |  | > 100 | 76 µM (inactive) | > 100 µM (inactive) | > 100 µM (inactive) | > 100 µM (inactive) |  |
| CCCCCCCCCCCCCCCCCc1cccc(OCOCCOC)c1CO |  | > 100 µM (inactive) | > 100 µM (inactive) | > 100 µM (inactive) | > 100 µM (inactive) | > 100 µM (inactive) |  | > 100 µM (inactive) | > 100 µM (inactive) | > 100 µM (inactive) | > 100 µM (inactive) | > 100 µM (inactive) | > 100 µM (inactive) | > 100 µM (inactive) | > 100 |  | > 100 µM (inactive) | > 100 µM (inactive) | > 100 µM (inactive) | > 100 µM (inactive) |
| Cc1nc2c(=O)n(C)ncc2[nH]1 | > 100 µM (inactive) |  | > 100 µM (inactive) | > 100 µM (inactive) | > 100 µM (inactive) | > 100 µM (inactive) | > 100 µM (inactive) | > 100 µM (inactive) | > 100 µM (inactive) | > 100 µM (inactive) | > 100 µM (inactive) | > 100 µM (inactive) |  | 77.1 µM (inactive) | > 100 |  | > 100 µM (inactive) | > 100 µM (inactive) | > 100 µM (inactive) | 22.6 µM (inactive) |
| CC(C)(C)OC(=O)NC(Cc1ccc(O)cc1)C(=O)NC(CCCCN)C(=O)NC(Cc1ccc(O)cc1)C(=O)NC(CCCCN)C(=O)ON1C(=O)CCC1=O (centres undefined) (Boc-YKYK-OSu; configuration not given here) | > 100 µM (inactive) |  |  | > 100 µM (inactive) | > 100 µM (inactive) | > 100 µM (inactive) | > 100 µM (inactive) | > 100 µM (inactive) | > 100 µM (inactive) | > 100 µM (inactive) | > 100 µM (inactive) | > 100 µM (inactive) |  | > 100 µM (inactive) | > 100 |  |  | > 100 µM (inactive) | > 100 µM (inactive) | > 100 µM (inactive) |
| COC(=O)c1c(OC(C)=O)ccc2c1c1c(OC(C)=O)c3ccccc3c(OC(C)=O)c1n2Cc1cc(OC)cc(OC)c1 | 5.12 µM (inactive) | 9.68 µM (inactive) | 5.09 µM (inactive) | 31.3 µM (inactive) | 6.82 µM (inactive) | 7.82 µM (inactive) | 45.7 µM (inactive) | 8.83 µM (inactive) | 30.8 µM (inactive) | 5.11 µM (inactive) | > 100 µM (inactive) | 4.06 µM (inactive) | 4.41 µM (inactive) | 14.2 µM (inactive) | 4.32 |  | 4.51 µM (inactive) | 24.4 µM (inactive) | 3.31 µM (inactive) | 7.19 µM (inactive) |
| Cc1c2ccccc2c(C)n2c1nc1cc3ccccc3cc12 | 1.47 µM (inactive) | 2.45 µM (inactive) | 1.34 µM (inactive) |  | 1.84 µM (inactive) | 1.37 µM (inactive) | 1.79 µM (inactive) | 1.34 µM (inactive) | 0.783 µM (active) | 1.38 µM (inactive) | 1.02 µM (active) | 1.94 µM (inactive) | 1.56 µM (inactive) | 1.25 µM (inactive) | 1.36 |  | 0.968 µM (active) | 1.46 µM (inactive) | 1.61 µM (inactive) | 1.57 µM (inactive) |
| O=C(Nc1noc(-c2ccccc2)n1)c1ccccc1CNc1noc(-c2ccccc2)n1 | > 100 µM (inactive) | > 100 µM (inactive) | > 100 µM (inactive) | > 100 µM (inactive) | > 100 µM (inactive) | > 100 µM (inactive) | > 100 µM (inactive) | > 100 µM (inactive) | > 100 µM (inactive) | > 100 µM (inactive) | > 100 µM (inactive) | > 100 µM (inactive) | > 100 µM (inactive) | > 100 µM (inactive) | > 100 | > 100 µM (inactive) | > 100 µM (inactive) | > 100 µM (inactive) |  | > 100 µM (inactive) |
| CN(C)CCNC1=C(Cl)C(=O)c2c(O)ccc(O)c2C1=O | 2.59 µM (inactive) | 18.2 µM (inactive) | 17.1 µM (inactive) | 23.6 µM (inactive) | 1.72 µM (inactive) | 1.91 µM (inactive) | 1.89 µM (inactive) | 1.95 µM (inactive) | 3.5 µM (inactive) | 1.95 µM (inactive) | 1.74 µM (inactive) | 1.54 µM (inactive) | 1.87 µM (inactive) | 2.99 µM (inactive) | 2.51 |  | 1.98 µM (inactive) | 2.12 µM (inactive) | 2.1 µM (inactive) | 2.99 µM (inactive) |
| O=[N+]([O-])/C(C(Cl)=C(Cl)Cl)=C(\N1CCCCC1)n1cncn1 | 14.4 µM (inactive) | 17.6 µM (inactive) | 12.9 µM (inactive) | 18.3 µM (inactive) | 17.5 µM (inactive) | 22.2 µM (inactive) | 17.5 µM (inactive) | 19.6 µM (inactive) | 17.7 µM (inactive) | 17.2 µM (inactive) | 16.2 µM (inactive) | 12.6 µM (inactive) | 18.6 µM (inactive) |  | 16 | 15.1 µM (inactive) | 16 µM (inactive) | 16.3 µM (inactive) | 18 µM (inactive) | 23 µM (inactive) |
| COc1c2c(cc3oc(C)cc(=O)c13)OC(=N)C(C(N)=O)C2CC(=O)c1ccc(N)cc1 (centres undefined) | > 100 µM (inactive) |  | > 100 µM (inactive) | > 100 µM (inactive) | > 100 µM (inactive) | > 100 µM (inactive) | > 100 µM (inactive) |  | > 100 µM (inactive) | > 100 µM (inactive) | > 100 µM (inactive) | > 100 µM (inactive) | > 100 µM (inactive) | > 100 µM (inactive) | > 100 | > 100 µM (inactive) | > 100 µM (inactive) | > 100 µM (inactive) | > 100 µM (inactive) | > 100 µM (inactive) |
| CC(=O)Nc1ccc(COC(O)CN2CCCCC2)cc1[N+](=O)[O-] (centres undefined) | > 100 µM (inactive) |  | > 100 µM (inactive) | > 100 µM (inactive) | > 100 µM (inactive) | > 100 µM (inactive) | > 100 µM (inactive) |  | > 100 µM (inactive) | > 100 µM (inactive) | > 100 µM (inactive) | > 100 µM (inactive) | > 100 µM (inactive) |  | > 100 |  | > 100 µM (inactive) | > 100 µM (inactive) | > 100 µM (inactive) | > 100 µM (inactive) |
| CN(C(=O)OC(C)(C)C)[C@H]1CCCC[C@H]1N1CCCC1 |  | > 100 µM (inactive) | > 100 µM (inactive) | > 100 µM (inactive) | > 100 µM (inactive) | > 100 µM (inactive) | > 100 µM (inactive) | > 100 µM (inactive) | > 100 µM (inactive) | > 100 µM (inactive) | > 100 µM (inactive) | > 100 µM (inactive) | > 100 µM (inactive) | > 100 µM (inactive) | > 100 | > 100 µM (inactive) | > 100 µM (inactive) | > 100 µM (inactive) | > 100 µM (inactive) |  |
| CN(C)/C=C(\C(=O)c1ccccc1)n1nc(-c2ccccc2)cc1-c1ccccc1 | > 10 µM (inactive) | > 10 µM (inactive) | > 10 µM (inactive) | > 10 µM (inactive) | > 10 µM (inactive) | > 10 µM (inactive) | > 10 µM (inactive) | > 10 µM (inactive) | > 10 µM (inactive) | > 10 µM (inactive) | > 10 µM (inactive) | > 10 µM (inactive) | > 10 µM (inactive) | > 10 µM (inactive) | > 10 | > 10 µM (inactive) | > 10 µM (inactive) | > 10 µM (inactive) | > 10 µM (inactive) |  |
| N#CCCN(CCC#N)c1ccc(C(=N/c2ccc(F)cc2)/N=N/c2ccccc2)cc1 | > 100 µM (inactive) | > 100 µM (inactive) | > 100 µM (inactive) | > 100 µM (inactive) | 34 µM (inactive) | > 100 µM (inactive) | > 100 µM (inactive) | > 100 µM (inactive) | > 100 µM (inactive) | > 100 µM (inactive) | > 100 µM (inactive) | 83.6 µM (inactive) | 93.5 µM (inactive) | > 100 µM (inactive) | > 100 |  | 95.3 µM (inactive) | > 100 µM (inactive) | 93.3 µM (inactive) | 57.5 µM (inactive) |
